Tests used:
hepatitis B virus [1] = assay: Mouse venous hypertension model (genotype B), core antigen (HBeAg) in peripheral blood by ELISA; type: in vivo, Wild-type mice (C57/B6); settings: 50 mg/kg/day oral gavage, 9th day after infection, Figure 4
Experimental: . On the 9th day after infection, about 100µl/mouse of blood was harvested from the tail to separate serum. The concentration of hepatitis B virus core antigen (HBeAg) in peripheral blood was measured by ELISA. The OD value at 450nm was measured on a microplate reader.

hepatitis B virus [2] = assay: Mouse venous hypertension model (genotype B), HBV genomic DNA in liver by fluorescence quantitative PCR; type: in vivo, Wild-type mice (C57/B6); settings: 50 mg/kg/day oral gavage, 11th day after infection, Figure 5
Description: . On the 11th day after infection, the mice were sacrificed, the livers of the mice were isolated, DpnI was transferred to exclude source DNA, and HBV genomic DNA in the livers of the mice was detected by fluorescence quantitative PCR (n=5).

[3] = test system: subtype A hepatitis B virus; assay: Mouse venous hypertension model (genotype A), HBeAg in peripheral blood by ELISA; type: in vivo, Wild-type mice (C57/B6); settings: twice a day, oral gavage, 9th day after infection, Figure 8
Experimental: On the 9th day after infection, about 100µl of blood was harvested from each animal, serum was separated, and the concentration of HBeAg in peripheral blood was measured by ELISA.

hepatitis B virus [4] = assay: HBV replication in HepAD38 cell model, qPCR of cccDNA, core particle DNA and supernatant HBV DNA; type: cell-based; settings: 20µM, 10µM and 5µM, HepAD38, 96 and 144 hours, Figures 10, 11, 12
Experimental: 2×10^5 HepAD38 cells that were stably expressing HBV with good growth status were seeded in collagen pretreated 6-well plates, and the corresponding concentrations of the test substances were added: final concentration of 1µM for entecavir (ETV) and a final concentration of 20µM, 10µM, and 5µM for amlexanox (AML), respectively. Two groups of controls were also set up, one with solvent only (DMF) and one with antibiotic only (tetracycline). Three replicate wells were set for all groups. After 96 hours and 144 hours of test article addition, 500 µL of cell culture supernatant was used to extract DNA from the supernatant, and the amount of HBV DNA in the supernatant was detected by qPCR. After 144h, cells were harvested and lysed in Lysis buffer A (50 mM Tris-HCl, pH 7.4, 1 mM EDTA, and 1% NP-40). The supernatant and pellet of the lysates were collected, respectively, from which DNA was extracted and quantified by quantitative PCR. Linear DNA was removed by DNA exonuclease (NEB) after DNA extraction from the cell lysate pellet, so only circular DNA (cccDNA) was examined (Figure 10). Viral DNA in the supernatant of cell lysates was defined as core particle DNA (Figure 11).

hepatitis B virus [5] = assay: HBsAg in culture supernatant of HepAD38 cells, ELISA; type: cell-based; settings: 10µM and 5µM, HepAD38, 24h, 48h, 96h, 144h, Figure 13
Experimental: Two groups of controls were also set up, one with only solvents (DMF) and one with antibiotics (tetracycline). Three replicate wells were set up for all experiments. 500µL of culture supernatant was taken at 24h, 48h, 96h, and 144h after adding the test article for ELISA to detect HBsAg concentration (Figure 13).

hepatitis B virus [6] = assay: HBV core antigen (HBeAg) in culture supernatant of HepAD38 cells, ELISA; type: cell-based; settings: 16µM to 2µM, HepAD38, 24h to 144h, Figure 14
Experimental: A solvent-only control group (DMF) was also set up. Three replicate wells were set up for all experiments. 500µL of culture supernatant was taken at 24h, 48h, 72h, 96h, and 144h after adding the test article for ELISA to detect HBV core antigen (HBeAg) concentration.

3TC/ETV-resistant HBV = assay: Mouse venous hypertension model, serum HBsAg by ELISA (Example 13, Figure 17); type: in vivo, male C57 mice; settings: 150 mg/day (converted adult dose, 22.8 mg/kg/day in mice), oral gavage, five days
Description: The specific method was based on the instructions of the ELISA kit.

[7] = test system: HepG2, HCT-116, Hela, A549, MCF7, MKN45, THP-1, Huh7, and 293 cells; assay: Cytotoxicity test, MTT assay, summary over the nine kinds of cells; type: cell-based; settings: 72h
Experimental: […]. Various cells in the logarithmic growth phase were seeded in 96-well plates at 6,000 cells/well and cultured for 24h. […]. The dosage of DMSO in the solvent control group was based on the maximum dose of 0.1% used in the test group, with four duplicate wells for each concentration. Cells were treated with the drug for 72h and then added with 20µL 5 mg/mL MTT, cultured at 37°C for 4h, after added 100 µ L triple solution (10% SDS, 5% isobutanol, 12 mM hydrochloric acid), 96-well cell culture plate was placed in an incubator containing 5% CO2 at 37 ± 1°C overnight. OD value at 570nm was measured on a microplate reader.
The inhibition rate of tumor cell growth was calculated according to the following formula: Inhibition rate(%) = [(OD570controlwell−OD570dosewell)/OD570controlwell] × 100. [formula]

B and T cells = assay: Immune cells in blood of HBV-infected mice, flow cytometry; settings: 4, 8, 16 mg/kg/time, twice a day, oral gavage, day 9, Figure 19
Experimental: (§1) Six-week-old male C57 mice were rapidly injected with 10µg/mouse of viral genomic DNA (genotype A) by tail vein injection in a short period. Viral infection was established using a venous hypertension model and randomly divided into groups. […] At the same time, a blank control was set up, and oral administration in uninfected mice was equivalent to the model group.
On day 9, mice were sacrificed to collect blood stained with flow antibody after fission red. All cells were treated with anti-FcγRIII/ II (purchased from BD Biosciences) in PBS for 30 min. CD3e-FITC (purchased from BD Biosciences). CD4-PE, CD8a-APC-Vio770, and CD34-FITC (GE). CD19-APC, CD11b-PE-Cyanine7, and CD117-efflor 450 (purchased from eBioscience). After staining, the samples were suspended using 500µL PBS and analyzed by BD Aria III flow cytometer.

hepatitis B virus [8] = assay: Mouse venous hypertension model (genotype A), serum HBsAg by ELISA, dose groups (Example 12); settings: dose higher than 50 mg/day (converted adult dose), once a day oral gavage, seven days of administration, Figure 15
Experimental: as §1
On days 1, 3, and 7 of administration, an appropriate amount of blood was collected from the tail vein of mice in each group. On day 9, the remaining peripheral blood was collected after the mice were sacrificed. All blood samples were centrifuged to obtain serum, divided into two portions. One was used to detect the concentration of HBsAg by ELISA, and the other was used to detect the enzyme activity of alanine aminotransferase (ALT) by alanine aminotransferase kit (colorimetric method) (Nanjing Jiancheng Bioengineering Institute).

## CC(C)c1ccc2oc3nc(N)c(C(=O)O)cc3c(=O)c2c1 [amlexanox, Amlexanox]
Hepatitis B virus [1]
  concentration of hepatitis B virus core antigen (HBeAg) in peripheral blood: reduced hepatitis B virus core antigen levels in a mouse model of venous hypertension, and its effect was comparable to that of lamivudine
Hepatitis B virus [2]
  HBV genomic DNA in the livers of the mice: can significantly inhibit the load of viral DNA, and its effect is not lower than that of clinically used nucleotide-like drugs lamivudine and entecavir
[3]; 16 mg/kg/time
  concentration of HBeAg in peripheral blood: still effective
[3]; 4, 8 and 16 mg/kg/time
  concentration of HBeAg in peripheral blood, dose-response relationship: its ability to inhibit hepatitis B virus is enhanced in a mouse model of venous hypertension
Hepatitis B virus [4]
  HBV DNA (cccDNA, core particle DNA, viral DNA in cell culture supernatant): significantly inhibits hepatitis B virus replication in the HepAD38 cell model
Hepatitis B virus [5]
  HBsAg concentration in culture supernatant: significantly reduce HBsAg level
Hepatitis B virus [6]
  HBV core antigen (HBeAg) concentration in culture supernatant: significantly reduce HBsAg level and core antigen level
3TC/ETV-resistant HBV
  HBsAg level in the blood: significantly decreased
[7]; nine kinds of cells, below the concentration of 50 µM
  cytotoxicity: no obvious cytotoxicity
[7]; remaining five cells (other than MKN45, HCT-116, MCF7, Huh7), 100 µM
  cytotoxicity: no significant cytotoxicity
B and T cells
  effect on immune cells (B and T cells) in blood: had an inhibitory effect on both B and T cells, and the inhibitory effect was dose-dependent
Hepatitis B virus [8]
  concentration of HBsAg in serum: significantly reduced surface antigen (HBsAg) levels

From patent EP3991729A1, “USE OF AMLEXANOX IN PREPARING ANTI-HEPATITIS VIRUS DRUG” (Marine Biomedical Research Institute Of Qingdao Co., Ltd., priority 2019, dated 2020)
